Measured values published in patent publication US20030225081A1, “Pyridazinones and triazinones and medicinal use thereof” (priority 2000, published 2003).

Legend:
[1] = test system: AMPA receptor; test: Suppressing action to calcium influx into nerve cells induced by AMPA; type: cell-based; details: Fura2-AM, stimulation with 2 μM AMPA, primary culture of rat embryo cerebral cortex nerve cells, 1 μM MK-801
Source text: Suppressing Action to Calcium Influx into Nerve Cells Induced by AMPA
The suppressing action of the compounds of the present invention to calcium influx into nerve cells induced by AMPA was investigated using the primary culture system of nerve cells of cerebral cortex of embryo of rat.
Cerebral cortex was cut out from the brain of rat of gestational 18 days and treated with trypsin and DNase to disperse the cells. The cells were flown by MEM containing 10% of serum, sown in a culture bottle and astrocytes were proliferated. The astrocytes were re-dispersed by trypsin and sown in a 96-well plate. After incubation for one week, it was confirmed that the astrocytes covered all over the bottom and then the nerve cells of cerebral cortex which was dispersed by the above method were sown thereupon. After incubation for 24 hours, the medium was changed, the incubation was carried out for one week and, after that, the medium was changed to that containing 1 μM of MK-801. Nerve cells which were incubated for not shorter than 8 to 10 days were used.
Calcium influx into the cells was measured using Fura2-AM which was a calcium-sensitive fluorescent dye. It was treated in a medium containing Fura2-AM for 1 hour, incorporated into the cells, exchanged to a Tyrode solution containing 1 μM MK-801 and stimulation was carried out using 2 μM AMPA. Change in the amount of calcium flown into the cells were measured as the change in the fluorescent intensity at the exciting wave length of 340/380 nm. […] As the control compound, GYKI52466 (Le Peillet, et al., Brain Res., 571, 115, 1992) was used.

[2] = test system: convulsion induced by AMPA; test: Anticonvulsant action induced by AMPA; type: in vivo, mice of ddy strain; details: 25 mg/kg orally, mice; AMPA injected into lateral ventricle 30 minutes or 1 hour after administration
Protocol: Anticonvulsant Action Induced by AMPA A test compound was suspended in a 0.5% methyl cellulose solution or in sesame oil and was orally administered (25 mg/kg) to male mice of ddy strain. After 30 minutes or 1 hour from the oral administration, AMPA was continuously injected ([…]/5 μl/minute/mouse) into lateral ventricle to induce the convulsions. The effect was judged by a time-extending action until the convulsion takes place by a continuous injection of AMPA.

| SMILES | IC50 [1] [nM] | anticonvulsant action (time-extending action until the convulsion takes place) [2] |
| --- | --- | --- |
| N#Cc1ccccc1N1N=C(c2ccccn2)CN(c2cccnc2)C1=O [Example 103, 2-(2-Cyanophenyl)-6-(2-pyridyl)-4-(3-pyridyl)-4,5-dihydro-1,2,4-triazin-3 (2H)-one] | 100 | significantly inhibited the convulsion induced by AMPA |
| N#Cc1ccccc1N1N=C(c2ccccn2)CN(c2ccccn2)C1=O [Example 102, 2-(2-Cyanophenyl)-6-(2-pyridyl)-4-(2-pyridyl)-4,5-dihydro-1,2,4-triazin-3 (2H)-one] | 100 | significantly inhibited the convulsion induced by AMPA |
| O=c1c(-c2cccnc2)cc(-c2ccccn2)nn1-c1ccccc1 [Example 59, 2-Phenyl-4-(3-pyridyl)-6-(2-pyridyl)-3 (2H)-pyridazinone] | 600 | significantly inhibited the convulsion induced by AMPA |
| N#Cc1ccccc1N1N=C(c2ccccn2)CN(c2ccccc2)C1=O [Example 100, 2-(2-Cyanophenyl)-4-phenyl-6-(2-pyridyl)-4,5-dihydro-1,2,4-triazin-3 (2H)-one] | 50 | significantly inhibited the convulsion induced by AMPA |
| N#Cc1ccccc1-n1nc(-c2ccccn2)cc(-c2cccnc2)c1=O [Example 45, 2-(2-Cyanophenyl)-4-(3-pyridyl)-6-(2-pyridyl)-3 (2H)-pyridazinone] | 200 | significantly inhibited the convulsion induced by AMPA |
| N#Cc1ccccc1-n1nc2c(c(-c3cccnc3)c1=O)COc1ccccc1-2 [Example 9, 2-(2-Cyanophenyl)-4-(3-pyridyl)-2,3-dihydro-5H-(1)benzopyrano[4,3-c]pyridazin-3-one] | 20 | significantly inhibited the convulsion induced by AMPA |
| O=C1N(c2ccccc2O)CC(c2ccccn2)=NN1c1ccccc1Br [Example 86, 2-(2-Bromophenyl)-4-(2-hydroxyphenyl)-6-(2-pyridyl)-4,5-dihydro-1,2,4-triazin-3 (2H)-one] | 100 |  |
| N#Cc1ccccc1-n1nc(-c2ccccc2)cc(C(=O)NCCN2CCOCC2)c1=O [Example 12, 2-(2-Cyanophenyl)-4-(4-morpholinoethylaminocarbonyl)-6-phenyl-3 (2H)-pyridazinone] | 3900 |  |
| O=C1C(c2ccccc2OS(=O)(=O)C(F)(F)F)CC(c2ccccn2)=NN1c1ccccc1 (stereo not shown) [Example 38, 2-Phenyl-6-(2-pyridyl)-4-(2-trifluoromethylsulfonyloxyphenyl)-4,5-dihydro-3 (2H)-pyridazinone] | 400 |  |
| COc1ccccc1C1=NN(c2ccccc2C#N)C(=O)N(c2ccccc2)C1 [Example 97, 2-(2-Cyanophenyl)-6-(2-methoxyphenyl)-4-phenyl-4,5-dihydro-1,2,4-triazin-3 (2H)-one] | 700 | significantly inhibited the convulsion induced by AMPA |
| N#Cc1ccccc1-c1cc(-c2ccccn2)nn(-c2ccccc2C#N)c1=O [Example 46, 2-(2-Cyanophenyl)-4-(2-cyanophenyl)-6-(2-pyridyl)-3 (2H)-pyridazinone] | 300 |  |
| COc1ccccc1C1=NN(c2ccccc2)C(=O)N(c2ccccc2Br)C1 [Example 115, 4-(2-Bromophenyl)-6-(2-methoxyphenyl)-2-phenyl-4,5-dihydro-1,2,4-triazin-3 (2H)-one] | 7200 |  |
| COc1ccccc1C1=NN(c2ccccc2Br)C(=O)N(c2ccccn2)C1 [Example 92, 2-(2-Bromophenyl)-6-(2-methoxyphenyl)-4-(2-pyridyl)-4,5-dihydro-1,2,4-triazin-3 (2H)-one] | 100 |  |
| N#Cc1ccccc1N1N=C2c3ccccc3OCC2C(c2ccccc2)C1=O (stereo not shown) [Example 6, 2-(2-Cyanophenyl)-4-phenyl-2,3,4,4a-tetrahydro-5H-(1)benzopyrano[4,3-c]pyridazin-3-one] | 100 |  |
| O=C1N(c2cccc([N+](=O)[O-])c2)CC(c2ccccn2)=NN1c1ccccc1Br [Example 121, 2-(2-Bromophenyl)-4-(3-nitrophenyl)-6-(2-pyridyl)-4,5-dihydro-1,2,4-triazin-3 (2H)-one] | 400 |  |
| COc1cccc(-c2cc(-c3ccccn3)nn(-c3ccccc3Br)c2=O)c1 [Example 52, 2-(2-Bromophenyl)-4-(3-methoxyphenyl)-6-(2-pyridyl)-3 (2H)-pyridazinone] | 200 |  |

| SMILES | IC50 [1] [nM] | anticonvulsant action (time-extending action until the convulsion takes place) [2] |
| --- | --- | --- |
| COc1ccccc1N1N=C(c2ccccn2)CC(c2ccccc2)C1=O (stereo not shown) [Example 26, 2-(2-Methoxyphenyl)-4-phenyl-6-(2-pyridyl)-4,5-dihydro-3 (2H)-pyridazinone] | 300 |  |
| COc1ccccc1C1=NN(c2ccccc2C#N)C(=O)N(c2ccccn2)C1 [Example 99, 2-(2-Cyanophenyl)-6-(2-methoxyphenyl)-4-(2-pyridyl)-4,5-dihydro-1,2,4-triazin-3 (2H)-one] | 70 |  |
| O=C1C(c2ccccc2O)CC(c2ccccn2)=NN1c1ccccc1Br (stereo not shown) [Example 29, 2-(2-Bromophenyl)-4-(2-hydroxyphenyl)-6-(2-pyridyl)-4,5-dihydro-3 (2H)-pyridazinone] | 100 | significantly inhibited the convulsion induced by AMPA |
| N#Cc1ccccc1-n1nc2c(c(-c3ccccc3)c1=O)COc1ccc(F)cc1-2 [Example 54, 2-(2-Cyanophenyl)-9-fluoro-4-phenyl-2,3-dihydro-5H-(1)benzopyrano[4,3-c]pyridazin-3-one] | 100 |  |
| N#Cc1ccccc1N1N=C(c2ccccn2)CN(c2cccc([N+](=O)[O-])c2)C1=O [Example 127, 2-(2-Cyanophenyl)-4-(3-nitrophenyl)-6-(2-pyridyl)-4,5-dihydro-1,2,4-triazin-3 (2H)-one] | 400 |  |
| O=c1c(-c2ccccc2)cc(-c2ccccn2)nn1-c1cccnc1 [Example 74, 2-(3-Pyridyl)-4-phenyl-6-(2-pyridyl)-3 (2H)-pyridazinone] | 900 |  |
| O=C1N(c2ccccc2Br)CC(c2ccccc2)=NN1c1ccccc1 [Example 113, 4-(2-Bromophenyl)-2,6-diphenyl-4,5-dihydro-1,2,4-triazin-3 (2H)-one] | 7100 |  |
| CN(C)CCOc1ccccc1C1=NN(c2ccccc2Br)C(=O)N(c2ccccc2)C1 [Example 91, 2-(2-Bromophenyl)-6-(2-dimethylaminoethoxyphenyl)-4-phenyl-4,5-dihydro-1,2,4-triazin-3 (2H)-one] | 300 |  |
| O=C1N(c2ccc(F)cc2)CC(c2ccccn2)=NN1c1ccccc1Br [Example 122, 2-(2-Bromophenyl)-4-(4-fluorophenyl)-6-(2-pyridyl)-4,5-dihydro-1,2,4-triazin-3 (2H)-one] | 200 |  |
| O=C1C(c2ccc(O)cc2)CC(c2ccccn2)=NN1c1ccccc1Br (stereo not shown) [Example 30, 2-(2-Bromophenyl)-4-(4-hydroxyphenyl)-6-(2-pyridyl)-4,5-dihydro-3 (2H)-pyridazinone] | 200 |  |
| N#Cc1ccccc1-n1nc(-c2cnccn2)cc(-c2ccccc2)c1=O [Example 82, 2-(2-Cyanophenyl)-4-phenyl-6-(2-pyrazinyl)-3 (2H)-pyridazinone] | 1200 |  |
| O=C1N(c2ccccn2)CC(c2ccccn2)=NN1c1ccccc1Br [Example 118, 2-(2-Bromophenyl)-6-(2-pyridyl)-4-(2-pyridyl)-4,5-dihydro-1,2,4-triazin-3 (2H)-one] | 30 |  |
| O=C1N(c2ccccc2)CC(c2ccccn2)=NN1c1ccccc1Br [Example 88, 2-(2-Bromophenyl)-4-phenyl-6-(2-pyridyl)-4,5-dihydro-1,2,4-triazin-3 (2H)-one] | 100 | significantly inhibited the convulsion induced by AMPA |
| COc1ccccc1C1=NN(c2ccccc2Br)C(=O)N(c2ccsc2)C1 [Example 108, 2-(2-Bromophenyl)-6-(2-methoxyphenyl)-4-(thiophen-3-yl)-4,5-dihydro-1,2,4-triazin-3 (2H)-one] | 4000 |  |
| O=c1c(-c2cccc(OCCO)c2)cc(-c2ccccn2)nn1-c1ccccc1Br [Example 3, 2-(2-Bromophenyl)-4-[3-(2-hydroxyethoxy)phenyl]-6-(2-pyridyl)-3 (2H)-pyridazinone] | 200 |  |
